Reference: the supplement of paper PMC10883282
Counter-ions that a name gives are not always drawn. ± gives the standard deviation of the averaged measurements.

Test system: G401
Experiment: relative viability vs DMSO control (72 h) (fraction); higher = more viable cells
Outline: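 Densities for seeding sarcoma cell lines into 384-well plates were set to give 80–90% confluence. After 24 h, 2.5 µl of serially diluted compound from source plates of 10 mM to 0.0002 mM went in, and plates stayed 72 h at 37 °C in 5% CO2 with 0.1% DMSO vehicle and a 5 µM positive control. Percent growth from ATPLite readings, averaged over up to triplicate wells, served as relative viability, rescaled so 1 means full and 0 means none.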

SMILES | relative viability (0.00017 µM) | relative viability (0.00051 µM) | relative viability (0.00152 µM) | relative viability (0.00457 µM) | relative viability (0.01372 µM) | relative viability (0.04115 µM) | relative viability (0.1235 µM) | relative viability (0.3704 µM) | relative viability (1.111 µM) | relative viability (3.333 µM) | relative viability (10 µM)
C[C@@H]1COCCN1c1cc(-c2ccnn2C)c2ccnc(-c3ccn[nH]3)c2n1 | 0.996 ± 0.018 | 0.9815 ± 0.0068 | 1 ± 0.011 | 1.01 ± 0.023 | 0.997 ± 0.02 | 0.915 ± 0.026 | 0.803 ± 0.043 | 0.675 ± 0.0044 | 0.598 ± 0.0066 | 0.517 ± 0.012 | 0.486 ± 0.012
CCN1CCN(Cc2ccc(Nc3ncc(F)c(-c4cc(F)c5nc(C)n(C(C)C)c5c4)n3)nc2)CC1 [Abemaciclib] | 0.985 ± 0.03 | 0.964 ± 0.018 | 0.924 ± 0.048 | 0.922 ± 0.061 | 0.857 ± 0.051 | 0.822 ± 0.037 | 0.796 ± 0.044 | 0.786 ± 0.048 | 0.758 ± 0.017 | 0.746 ± 0.037 | 0.6941 ± 0.0055
CCc1cc2c(cc1N1CCC(N3CCOCC3)CC1)C(C)(C)c1[nH]c3cc(C#N)ccc3c1C2=O [Alectinib] | 0.947 ± 0.037 | 0.983 ± 0.023 | 0.977 ± 0.028 | 0.991 ± 0.037 | 0.981 ± 0.026 | 0.954 ± 0.029 | 1.01 ± 0.031 | 1.01 ± 0.056 | 1.03 ± 0.057 | 0.991 ± 0.039 | 0.894 ± 0.037
Cc1nc(NC(=O)N2CCC[C@H]2C(N)=O)sc1-c1ccnc(C(C)(C)C(F)(F)F)c1 [Alpelisib] | 1 ± 0.066 | 1.01 ± 0.04 | 0.993 ± 0.041 | 0.946 ± 0.075 | 0.939 ± 0.017 | 0.906 ± 0.079 | 0.864 ± 0.021 | 0.777 ± 0.036 | 0.697 ± 0.07 | 0.577 ± 0.053 | 0.504 ± 0.052
Cn1cc(-c2cc3c(N4CCN(c5ncc([C@@](C)(N)c6ccc(F)cc6)cn5)CC4)ncnn3c2)cn1 [Avapritinib] | 0.895 ± 0.086 | 0.91 ± 0.036 | 0.907 ± 0.046 | 0.901 ± 0.023 | 0.922 ± 0.059 | 0.926 ± 0.074 | 0.918 ± 0.032 | 0.842 ± 0.033 | 0.701 ± 0.044 | 0.627 ± 0.012 | 0.506 ± 0.011
CC(C)NC(=O)C1CCC(n2c(NC(=O)c3ccc(F)cc3)nc3ccc(CN4CCC(C(C)(C)O)CC4)cc32)CC1 (stereo not drawn) [Belizatinib] | 1.01 ± 0.043 | 0.997 ± 0.054 | 1.01 ± 0.061 | 1 ± 0.064 | 1.02 ± 0.022 | 1.01 ± 0.015 | 0.974 ± 0.038 | 0.877 ± 0.026 | 0.606 ± 0.015 | 0.305 ± 0.027 | 0.154 ± 0.02
Cn1cnc2c(F)c(Nc3ccc(Br)cc3F)c(C(=O)NOCCO)cc21 [Binimetinib] | 1.01 ± 0.025 | 1.05 ± 0.019 | 1.03 ± 0.033 | 1.01 ± 0.011 | 0.983 ± 0.023 | 0.904 ± 0.0051 | 0.886 ± 0.029 | 0.859 ± 0.021 | 0.782 ± 0.02 | 0.716 ± 0.046 | 0.584 ± 0.038
Nc1cc(C(F)(F)F)c(-c2cc(N3CCOCC3)nc(N3CCOCC3)n2)cn1 [Buparlisib] | 0.957 ± 0.011 | 0.983 ± 0.013 | 0.932 ± 0.024 | 0.966 ± 0.022 | 1 ± 0.027 | 0.928 ± 0.041 | 0.86 ± 0.027 | 0.767 ± 0.037 | 0.594 ± 0.014 | 0.304 ± 0.005 | 0.237 ± 0.0068
CNC(=O)c1ccc(-c2cnc3ncc(Cc4ccc5ncccc5c4)n3n2)cc1F [Capmatinib] | 1.01 ± 0.023 | 0.988 ± 0.024 | 1.03 ± 0.027 | 1.04 ± 0.019 | 0.977 ± 0.03 | 1.01 ± 0.058 | 0.9706 ± 0.0066 | 1.02 ± 0.0027 | 0.981 ± 0.01 | 0.929 ± 0.012 | 0.877 ± 0.053
COc1cc2c(Oc3ccc4[nH]c(C)cc4c3F)ncnc2cc1OCCCN1CCCC1 [Cediranib] | 0.97 ± 0.055 | 1.03 ± 0.015 | 0.993 ± 0.031 | 0.981 ± 0.059 | 0.995 ± 0.029 | 1.01 ± 0.024 | 0.95 ± 0.024 | 0.828 ± 0.013 | 0.47 ± 0.019 | 0.273 ± 0.02 | 0.00627 ± 0.0033
COc1c(OCCCN2CCOCC2)ccc2c1N=C(NC(=O)c1cnc(N)nc1)N1CCN=C21 [Copanlisib] | 1.024 ± 0.0087 | 1 ± 0.024 | 0.959 ± 0.039 | 0.7934 ± 0.0059 | 0.702 ± 0.018 | 0.582 ± 0.033 | 0.537 ± 0.037 | 0.499 ± 0.043 | 0.476 ± 0.047 | 0.468 ± 0.02 | 0.477 ± 0.044
CN1CCN(c2ccc3nc(-c4c(N)c5c(F)cccc5[nH]c4=O)[nH]c3c2)CC1 [Dovitinib] | 1.02 ± 0.045 | 1.014 ± 0.0059 | 1.04 ± 0.021 | 1.018 ± 0.0017 | 1 ± 0.023 | 1.01 ± 0.051 | 0.966 ± 0.034 | 0.92 ± 0.019 | 0.632 ± 0.069 | 0.256 ± 0.013 | 0.13 ± 0.0053
COc1cccc2c1C(=O)c1c(O)c3c(c(O)c1C2=O)C[C@@](O)(C(=O)CO)C[C@@H]3O[C@H]1C[C@H](N)[C@H](O)[C@H](C)O1 [Doxorubicin Hydrochloride] | 1.03 ± 0.011 | 1.02 ± 0.018 | 1 ± 0.041 | 0.937 ± 0.021 | 0.8493 ± 0.0066 | 0.681 ± 0.019 | 0.476 ± 0.041 | 0.079 ± 0.017 | 0.0407 ± 0.0027 | 0.096 ± 0.0082 | 0.101 ± 0.0054
Cc1cnc(Nc2ccc(OCCN3CCCC3)cc2)nc1Nc1cccc(S(=O)(=O)NC(C)(C)C)c1 [Fedratinib] | 1.029 ± 0.0083 | 1.05 ± 0.029 | 1.038 ± 0.0091 | 1.03 ± 0.019 | 1.04 ± 0.011 | 0.997 ± 0.024 | 0.919 ± 0.015 | 0.8157 ± 0.0074 | 0.499 ± 0.0075 | 0.204 ± 0.012 | 0.0136 ± 0.00091
C=CC(=O)N1CCC[C@@H](n2nc(-c3ccc(Oc4ccccc4)cc3)c3c(N)ncnc32)C1 [Ibrutinib] | 1.03 ± 0.025 | 1.03 ± 0.095 | 1.03 ± 0.037 | 1.01 ± 0.0057 | 1.01 ± 0.025 | 1.05 ± 0.013 | 0.998 ± 0.072 | 0.995 ± 0.05 | 1.02 ± 0.013 | 0.922 ± 0.045 | 0.668 ± 0.049
CC[C@H](Nc1ncnc2[nH]cnc12)c1nc2cccc(F)c2c(=O)n1-c1ccccc1 [Idelalisib] | 1.06 ± 0.034 | 1.07 ± 0.036 | 1.06 ± 0.051 | 1.05 ± 0.017 | 1.02 ± 0.032 | 0.998 ± 0.036 | 0.987 ± 0.042 | 0.965 ± 0.021 | 0.946 ± 0.013 | 0.877 ± 0.045 | 0.795 ± 0.023
O=C(Cc1ccc(-c2ccc(OCCN3CCOCC3)cc2)cn1)NCc1ccccc1 [KX2-391] | 1.05 ± 0.047 | 1.05 ± 0.025 | 1.02 ± 0.033 | 1.05 ± 0.036 | 1.022 ± 0.0094 | 0.944 ± 0.027 | 0.555 ± 0.019 | 0.446 ± 0.013 | 0.421 ± 0.013 | 0.38 ± 0.014 | 0.368 ± 0.0095
O=C(Nc1cnn2ccc(N3CCC[C@@H]3c3cc(F)ccc3F)nc12)N1CC[C@H](O)C1 [Larotrectinib] | 1.032 ± 0.0041 | 1.03 ± 0.016 | 1.021 ± 0.0029 | 1.04 ± 0.033 | 1.04 ± 0.03 | 1.01 ± 0.019 | 1.02 ± 0.028 | 1 ± 0.014 | 1 ± 0.048 | 0.97 ± 0.025 | 0.916 ± 0.034
